In patent US11541059B2, “Heterocyclic compounds and uses thereof” (Infinity Pharmaceuticals, Inc., priority 2014, dated 2023):

Experiments:
[1] = system: CD11b+ myeloid cells in 4T1 tumors; assay: Immunohistochemistry of tumor immune infiltrates (CD11b, CD68), 4T1; type: in vivo, mouse; details: vs vehicle, day 13
Method: Immunohistochemistry was performed to determine the distribution of immune cells within the tumor. In particular, CD11b myeloid cells were examined, as were regulatory vs. effector T cells (CD3, CD4, CD8, FoxP3). Briefly, IHC for CD11b or CD68+ was performed as follows. CD11b antibodies were available from Abcam, clone I-70, Catalog #ab 8878. CD68 antibodies were available from Abcam, clone FA-11, catalog #ab 53444. Tissues were fixed in cold methanol, air-dried, and then stained using a Res IHC Omni-UltraMap HRP XT protocol.
Without being bound by a particular theory, the decrease in the pro-tumorigenic tumor associated myeloid cells can result in activation of cytotoxic T-cells and anti-tumor immunity. […] When the images were quantified as CD11b+ cells per total viable cells (FIG. 37E), a Student t-Test p-value of 0.0355 was obtained when comparing the Compound BB-treated cells to controls. When the images were quantified as CD11b+ stained area per total visible area (FIG. 37F), a Student t-Test p-value of 0.0441 was obtained when comparing the Compound BB-treated cells to controls. […] When the images were quantified as CD11b+ cells per total viable cells (FIG. 37G), a Student t-Test p-value of 0.0864 (d16) or 0.3967 (d22) was obtained when comparing the Compound BB-treated cells to controls. […]

[2] = system: LLC tumor; assay: Lewis Lung Carcinoma (LLC tumor brei) model; type: in vivo, mouse; details: FIG. 25A, 25B
Method: Compound BB was tested in the Lewis Lung Carcinoma model, which is known in the art and briefly described hereinabove.
LLC tumor brei model was prepared and injected subcutaneously into a mouse in the hind flank region. The tumor brei was prepared as follows. LL2-Luc tumor cells were grown in culture in DMEM+10% FBS. Cells were implanted @ 1×10^6 cells/100 uL SC in the flank of C57 Albino mice (male) When tumors reached 1000 mm3, tumors were harvested. Only the white, living tissue was harvested. Any material containing visable blood or necrotic area was isolated away from the tumor tissue. Tumor tissue was placed in a Dounce tissue homoginized with 5 mLs of warm DMEM (no FBS). About 1-2 grams of tumor tissue was collected, homogenized, pooled into 50 mL falcon tube, and cells were counted. Cells were spinned @ […], and FBS was pooled off Cells were resuspended to equal 1×10^7 cells/mL with sterile PBS. 100 uL of cells/mouse SC at the hind flank region were implanted. This process was repeated one more time before conducting brei tumor efficacy study.

[3] = system: pAKT S473 in T cells and monocytes; assay: Ex vivo whole blood CXCL12 stimulation of phospho-AKT, LLC-bearing mice; type: in vivo, mouse; details: 12 days QD PO, 2 h post dose
Method: C57 BL/6 Albino mice were implanted with 1×10^6 cells in a SC injection in the hind flank. The cell implant material was generated from brei that was passaged from mouse to mouse. Treatment started when tumors were between 160-180 mm^3. Mice were dosed for 12 days, QD, PO with vehicle, 15, 7.5 or 3 mg/kg. On day 12 mice were dosed and terminal blood was collected 2 h post dose by cardiac stick collection. Blood was placed in EDTA K2 collection tube and stored at room temp for PD analysis.
Blood from each animal was aliquotted into 2 plates and warmed to 37° C. degrees. PBS was added to one plate as an unstimulated control. Murine CXCL12/SDF-1 was added to the second plate to a final concentration of 800 ng/mL and plate was returned to the 37° C. degree block. After 2 minutes of incubation, blood was lysed and fixed using paraformaldehyde. Samples were washed and frozen until flow cytometric analysis. T cells were gated using an antibody to CD3 and monocytes were gated as LY6G^− LY6C^high. Intracellular pAKT S473 was measured and percent positive was used for graphing.

[4] = system: human T cells; assay: Concanavalin A-induced model for activation of human T cells (IFN-γ); type: cell-based; details: isoform selective concentrations
[5] = Pharmacokinetics of Compound BB, single and repeat oral dose; type: in vivo, mouse; details: female CB6F1 mice, 2, 7.5, 15 mg/kg PO
Method: Animals were weighed daily prior to dosing. […] On subsequent dosing days, the animals' condition was noted prior to dosing; the animals were observed within 4 hours of dosing, and at the end of the day.
Samples were collected at pre-dose 0.25, 0.5, 1, 2, 4, 6 and 24 h following the first dose on day 1 and pre-dose (trough), 0.25, 0.5, 1, 2, 4, 6 and 24 h following the final dose on day 3. Animals received a single oral dose daily for 3 consecutive days. Blood was collected by retro-orbital bleeding for all time points on day 1. All other blood sampling was collected by a cardiac puncture. Blood was collected into K2EDTA tubes and placed on wet ice. Within 15 min of collection, the sample was centrifuged at 10,000 rpm at 4° C. for 10 min in a bench top centrifuge and the plasma transferred to a new microcentrifuge tube.

[6] = Human hep viability; type: cell-based; details: human hepatocytes

In the case of `C[C@H](NC(=O)c1c(N)nn2cccnc12)c1cc2cccc(C#Cc3cnn(C)c3)c2c(=O)n1-c1ccccc1` [Compound BB], the “CD11b+ myeloid cell staining in viable regions of 4T1 tumors” value [1] is reported as “decrease in CD11b+ myeloid cell staining”, the “Tumor growth, Lewis Lung Carcinoma model” value [2] is reported as “demonstrated single agent activity” and the “Ex vivo whole blood CXCL12 stimulation of phospho-AKT in T cells” value ([3]; FIG. 58) is reported as “inhibits the ex vivo whole blood stimulation of phosphor-AKT in T cells”. The “Ex vivo whole blood CXCL12 stimulation of phospho-AKT in monocytes” value ([3]; FIG. 59) was “inhibits the ex vivo whole blood stimulation of phosphor-AKT in monocytes”, the “effect on IFN-γ” value [4] was “little to no effect” and the “Stability in serum (24-hour unbound plasma concentration time course)” value [5] was “good stability in serum”. For the same molecule, the IC50 [6] was 10 to 25 µM.
